Assay [1] relates to Staphylococcus aureus (ATCC BAA-1761 strain). Kind of assay: Mouse superficial skin injury infection model, viable bacterial count on infected wound. The assay is classed as in vivo. As to conditions: mice; for bacterial count in skin lesion site compared with blank control group: topical twice a day for 3 days, p.value=0.0006. The procedure: (§1) Medical tape; 3% chloral hydrate; normal saline; 0.1 μM Belinostat and 100 μM Belinostat (with solvents being 10% glycerin); a commercially available fusidic acid ointment (2% drug content); an LB plate; an independent air supply cage for mice; surgical scissors; tweezers; and a hair removal device.
(§2) 20 female BALB/c mice aged 6-8 weeks were kept in the independent air supply cage.
Preparation of a bacterial solution: Staphylococcus aureus (ATCC BAA-1761 strain), preserved by the Laboratory Department of the First Affiliated Hospital of Xi′an Jiaotong University. Before the experiment, Staphylococcus aureus was inoculated in 5 mL of LB and placed in an incubator at 37° C. for shaking culture, and when the amount of bacteria was about 10^7 CFU/mL, the bacteria were taken out for use.
Back skin of 6-8 week-old female BALB/c mice was depilated with a depilatory paste before modeling, and an exposed skin region with a size of about 1 cm^2 was formed. On the day of modeling, the mice were anesthetized by intraperitoneal injection of 3% chloral hydrate at 10 mL/kg. A same operator pasted the medical adhesive tape to the depilated skin of the mice with basically a same strength, and then tore the medical adhesive tape off. The foregoing paste-tear operation was repeated many times to remove stratum corneum, and the adhesive tape needed to be replaced during each paste-tear process. When the skin of the mice became red and shiny, but there was no regular bleeding, the paste was stopped. The foregoing 10 μL of bacterial suspension was evenly applied to the damaged skin of the mice, and the infection lasted for 24 hours to establish the model of superficial skin injury of the mice.
The mice were randomly divided into four groups, which were a blank control (control) group, a low-concentration X group (low-concentration group, with a specific concentration of 0.1 μM), a high-concentration X group (high-concentration group, with a specific concentration of 100 μM), and a fusidic acid group (fusidic acid group, that is, a positive control group), with five mice in each group. All the mice of the blank control group were killed the day before the start of treatment to quantify an amount of bacterial inoculation. The three drug groups were administered twice a day (8:00 am. and 8:00 p.m. respectively) for three consecutive days after the infection. Dosages of the low-concentration X group and the high-concentration X group were 50 μL/time for each mouse, and a dosage of the fusidic acid group was 0.1 g/time for each mouse. […] After the experiment, the mice were killed.
After the mice were killed, a wound of about 1 cm^2 was excised immediately, and put into a tissue homogenizing tube with 1 mL of normal saline and magnetic beads for tissue homogenization. 100 μL of tissue homogenate was diluted with normal saline for 10^1, 10^2, 10^3, and 10^4 times gradient, and then 100 μL of each diluted solution was evenly spread on an LB plate. After inverted overnight culture for 12-24 hours, colonies were counted and the count was converted into bacterial content (CFU/cm^2) per square centimeter of tissue.

In assay [2] the target is T1, HU protein (Bacillus subtilis, UniProt P08821). Kind of assay: Nuclear magnetism Titration (HSQC) binding experiment. The settings on record: 10 μM HU protein, 1 μL of 100 mM Belinostat stock added. From the text: (§3) At the molecular level, a binding effect of Belinostat with the HU protein was verified by nuclear magnetism Titration and waterLOGSY experiments. The isoleucine (Ile) at the 71^St site in the HU protein was mutated into alanine (Ala) to obtain a corresponding mutant (hereinafter referred to as “HU^171A protein”), then the waterLOGSY experiment was repeated, and the binding effect of the drug and the mutated HU^171A protein disappeared, proving that a key binding site of the two was the amino acid at the 71st site in the HU protein. Specific experimental steps and experimental results are as follows:
An appropriate amount of Belinostat (MedChemExpress Company) was weighed and dissolved in DMSO-d6 (Solarbio Science & Technology Co., Ltd.) to obtain a stock solution of Belinostat with a concentration of 100 mM for use. 480 μl of solution containing 10 μM of HU protein was taken, 20 μL of D2O was added and mixed evenly, the obtained solution was transferred into a nuclear magnetic resonance tube, and an HSQC spectrogram of the HU protein was recorded on a Brooke 600 MHz nuclear magnetic resonance spectrometer (Avance III). 1 μL of Belinostat stock solution was taken, added into the foregoing nuclear magnetic resonance tube and mixed evenly, and then an HSQC spectrogram was recorded again.

The target of assay [3] is T1, HU protein. Kind of assay: waterLOGSY 1D NMR binding experiment, HU protein. The settings on record: 10 μM protein, pH 6.5 buffer.
Description: as §3
(§4) 1 μL of the foregoing Belinostat stock solution was taken, 479 μL of buffer solution (300 mM of NaCl and 50 mM of K2HPO4, with the pH of 6.5) and 20 μL of D2O were added and mixed evenly, and then the obtained solution was transferred to the nuclear magnetic resonance tube for use. In addition, two parts of 1 μL of the foregoing Belinostat stock solution were taken, an appropriate amount of HU protein and HU^171A protein were added respectively, then an appropriate amount of buffer solution and 20 μL of D2O were added respectively, so that the total volume of the solution was 500 μL, and the final protein concentration was 10 μm. After uniform mixing, the obtained solutions were transferred to nuclear magnetic resonance tubes for use. […]

The target in assay [4] is HU^171A protein (Bacillus subtilis, UniProt P08821, I71A). Nature of the assay: waterLOGSY 1D NMR binding experiment, mutated HU protein. The settings on record: 10 μM protein, pH 6.5 buffer.
Description: as §3, §4

Assay [5] relates to Bacillus subtilis (ATCC 23857 strain). Kind of assay: Growth curve of Bacillus subtilis (OD600). The assay is classed as cell-based. As to conditions: 24 hours. The procedure:
(§5) Before the experiment, an appropriate amount of Belinostat was weighed and dissolved in DMSO to obtain a mother liquid with a concentration of 100 mM. The mother liquid was diluted with an LB medium for use. Bacillus subtilis used in this embodiment was ATCC 23857 strain, and Staphylococcus aureus was methicillin-resistant Staphylococcus aureus ATCC BAA-1761 strain.
The experiment was performed on a 96-well plate, four groups of drug treated groups and one blank control group (that is, the Control group) were set, and each group had three repeat wells. A bacterial solution of Bacillus subtilis (ATCC 23857 strain) cultured in an LB medium was diluted to 5×10^5 CFU/mL with an LB medium, 15 wells were selected in the middle of the 96-well plate, 100 μL of diluted bacterial solution was added to each well, and then 100 μL of Belinostat solution diluted with the LB medium was added, so that the final drug concentrations in the four drug treated groups were 100 μM, 200 μM, 400 μM, and 500 μM, respectively. DMSO and the LB medium were added to the blank control group, so that the final concentration of the DMSO was 0.5% and a volume of a reaction system was consistent with that of each drug treated group. Shaking culture was performed at 37° C. for 24 hours.
Absorbance at 600 nm was used as an index of a bacterial concentration in the culture solution for determining once every 3 hours. Finally, with OD600 as a vertical coordinate and time as a horizontal coordinate, a bacterial growth curve was drawn.

In assay [6] the test system is Bacillus subtilis. Kind of assay: DAPI staining of Bacillus subtilis. The assay is classed as cell-based. As to conditions: 500 μM, 4 hours. The procedure: as §5
(§6) The experiments were performed in EP tubes, and one drug treated group and one blank control group were set. A bacterial solution of Bacillus subtilis cultured in an LB medium was diluted to 5×10^5 CFU/mL with the LB medium, 100 μL of diluted bacterial solution was taken and added to a 1.5 mL EP tube, and then 100 μL of Belinostat solution diluted with the LB medium was added, so that the final drug concentration was 500 μM. DMSO and the LB medium were added to the blank control group, so that the final concentration of the DMSO was 0.5% and a volume of a reaction system was consistent with that of the drug treated group. Three replicate tube were set in each group, and shaking culture was performed at 37° C. for 4 hours. […]

The subject of assay [7] is Staphylococcus aureus (ATCC BAA-1761 strain). Nature of the assay: DAPI staining of Staphylococcus aureus. Type of assay: cell-based. The settings on record: 500 μM, 4 hours, methicillin-resistant strain. Here is the method: as §5, §6
Assay [8] has as its system Bacillus subtilis. Kind of assay: Transmission electron microscope observation of Bacillus subtilis. The assay is classed as cell-based. As to conditions: 500 μM, 4 hours. Here is the method:
as §5
(§7) A bacterial solution of Bacillus subtilis cultured in an LB medium was diluted to 5×10^5 CFU/mL with the LB medium, 2.5 mL of diluted bacterial solution was taken and added to a 15 mL centrifuge tube, and then 2.5 mL of Belinostat solution diluted with the LB medium was added, so that the final drug concentration was 500 μM. 25 μL of DMSO and an appropriate amount of LB medium were added to the blank control group (the Control group) to ensure that a volume of a reaction system was consistent with that of the drug treated group (the Treated group). Three replicate tubes were set in each group. Shaking culture was performed at 37° C. for 4 hours, and bacteria were collected by centrifugation. […]

For assay [9], the system named is Staphylococcus aureus. Kind of assay: Transmission electron microscope observation of Staphylococcus aureus. Type of assay: cell-based. As to conditions: 500 μM, 4 hours. Here is the method: as §5, §7
Assay [10] in a line: Mouse superficial skin injury infection model, wound healing. The assay is classed as in vivo, BALB/c mice. As to conditions: mice, low-concentration group 0.1 μM vs high-concentration group 100 μM and fusidic acid group. The procedure:
as §1, §2
Back skin of 6-8 week-old female BALB/c mice was depilated with a depilatory paste before modeling, and an exposed skin region with a size of about 1 cm^2 was formed. On the day of modeling, the mice were anesthetized by intraperitoneal injection of 3% chloral hydrate at 10 mL/kg. A same operator pasted the medical adhesive tape to the depilated skin of the mice with basically a same strength, and then tore the medical adhesive tape off. […]
The mice were randomly divided into four groups, which were a blank control (control) group, a low-concentration X group (low-concentration group, with a specific concentration of 0.1 μM), a high-concentration X group (high-concentration group, with a specific concentration of 100 μM), and a fusidic acid group (fusidic acid group, that is, a positive control group), with five mice in each group. All the mice of the blank control group were killed the day before the start of treatment to quantify an amount of bacterial inoculation. […]

This is an account of results in patent US11826325B2, “Use of Belinostat or pharmaceutically acceptable salt thereof in preparation of drug for treating infection” (priority 2021, dated 2023).

The structures appear in SMILES notation.

T1 sequence (P08821 whole entry): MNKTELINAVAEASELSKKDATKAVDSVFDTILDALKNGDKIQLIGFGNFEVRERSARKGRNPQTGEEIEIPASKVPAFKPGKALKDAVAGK
HU^171A protein, sequence (P08821 whole entry I71A): as the sequence (P08821 whole entry) above, with I71A counted along it

On to `CC(=O)O[C@H]1C[C@@]2(C)[C@@H](C[C@@H](O)[C@H]3[C@@]4(C)CC[C@@H](O)[C@@H](C)[C@@H]4CC[C@@]32C)/C1=C(\CCC=C(C)C)C(=O)O` [fusidic acid], for which the “bacterial count in skin lesion site compared with blank control group” value in assay [1] is “significantly reduced”.

With `O=C(/C=C/c1cccc(S(=O)(=O)Nc2ccccc2)c1)NO` [Belinostat, N-hydroxy-3-(3-[(phenylamino)sulfonyl]phenyl)acrylamide], the “binding to HU protein (peak migration and peak intensity change in HSQC spectrum)” value in assay [2] is given as “can bind to the HU protein”. Further, in assay [3], the “binding to HU protein (waterLOGSY peaks reversed into negative peaks)” value is “bound to the HU protein”. Moreover, the “binding to mutated HU^171A protein (waterLOGSY)” value in [4] is “could not react with the mutated HU protein”. Further, in assay [5] (200 μM), the “effect on growth of Bacillus subtilis (absorbance at 600 nm vs blank control)” value is “relatively strong inhibitory effect on bacterial growth”. For the same molecule, the “effect on growth of Bacillus subtilis” value is “almost completely inhibited” in assay [5] (400 μM); “almost completely inhibited” in assay [5] (500 μM); “inhibitory effect on growth of Bacillus subtilis” in [5] (different concentrations (100, 200, 400, 500 μM), 37° C.). The “DAPI staining, nucleus region morphology” value in assay [6] is “bacterial nucleus region became longer”; in assay [7], “bacterial nucleus region was dispersed”. The “transmission electron microscope, cell length and nucleoid regions” value in assay [8] is “increased to different degrees, and nucleoid regions were scattered in many places in cytoplasm”. Besides, the “transmission electron microscope, nucleoid regions” value in assay [9] was “became inconspicuous and showed a loose state”. In addition, the “bacterial load at the skin lesion site, two concentrations” value in assay [1] (0.1 μM and 100 μM, 50 μL/time, twice a day, 3 days) was “same bactericidal effect”. In addition, the “antibacterial ability compared with commercial fusidic acid” value in assay [1] (dosage of Belinostat lower than that of fusidic acid) is recorded as “equivalent antibacterial ability”. In addition, in [1] (molar dosages much lower than fusidic acid), the “curative effect compared with fusidic acid” value is on record as “better than that of the fusidic acid”. Moreover, the “bacterial count in skin lesion site compared with blank control group” value in assay [1] is “significantly reduced”. For the same molecule, in assay [10], the wound healing speed result is “significantly faster”.
